Results from patent US20260356846A1, “STATIN DERIVATIVES AND METHODS OF USING THE SAME” (The General Hospital Corporation, priority 2023, published 2026).
Read-outs that look alike come from different tables or passages of the source.

What was measured:
[1] = test system: STMN2 (TDP-mut (N352S) STMN2-NLuc SH-SY5Y cells); experiment: STMN2 nanoluciferase assay in TDP-43 mutant SH-SY5Y cells (Table A: mut TDP-43; Table B: mut HD Luciferase); format: cell-based, human; conditions: mutant TDP-43 cell line; for EC50: Homo sapiens, SH-SY5Y
Protocol: (§1) Neuroblastoma cells (ATCC) were cultured in DMEM/F12 (Gibco) supplemented with 10% fetal-bovine serum (Omega) and 1% penicillin-streptomycin (Gibco) at 37 °C with 5% CO2. For knockdown experiments, cells were transfected with SMARTpool ON-TARGETplus siRNA or control siRNA pool (D001810-10) (GE Dharmacon) at a final concentration of 50 nM, for 96 h in two doses (0, 24 h), after complexing with Lipofectamin RNAiMAX (Invitrogen) in Opti-MEM (Gibco) for 10 min.
(§2) WT and TDP-mut (N352S) SH-SY5Y cells were edited using CRISPR-Cas9 to express Nanoluciferase at the C-terminus of both endogenous STMN2 alleles. A single guided RNA targeting STMN2 C-terminus was designed (Benchling webtool) and cloned into pSpCas9-2A-green fluorescent protein (GFP) plasmid (px458-Addgene) using the BbsI restriction site. The sequence for guided RNA targeting STMN2 was: […]. For the repair template, overlapping fragments of 800 bp STMN2 homology arms flanking Nanoluciferase (NLuc, Promega) were generated and ligated into pUC57 backbone. A 42 bp GS-linker was also included 5′ to NLuc to prevent steric hindrance of the reporter to the final STMN2 exon. Fragments were ligated using Gibson Assembly and nucleofected simultaneously with pSpCas9-2A-GFP-gRNA plasmid using the Amaxa Nucleofector (assay A-023). Forty-eight hours following electroporation, cells were collected, and GFP-positive cells sorted and single-cell seeded into 96-well plates using the SH800S Sony cell sorter. Individual clones were expanded and DNA was extracted for PCR amplification of the STMN2 Ex5 genomic locus using primers within NLuc and outside the STMN2 5′ homology arm to confirm presence of the insert. The entire STMN2 coding region and all exon-intron junctions (>500-bp length of each intronic region) were then sequenced to verify the absence of any additional DNA alteration. qPCR analysis was performed with a wild-type isogenic SH-SY5Y cell line that had undergone the mutagenesis attempt but not acquired the insertion mutation during the original screening process.
(§3) TDP-mut STMN2-NLuc SH-SY5Y cells were used in small-molecule screening at ICCB-Longwood. 3000 cells/well were plated in white 384-well plates using a 50 ul sample volume. 24 hours after plating, compounds were added using 100 nl pin transfer. 24 hours later, 25 ul NLuc assay was added to each well according to manufacturer instructions (Promega, Cat #). Plates were shaken for 1 min prior to luminescence readings using EnVision2 machine. DMSO-only and WT STMN2-NLuc cells were included as negative and positive controls respectively on each plate, producing an average Z′score of ~0.7 across the screen. Each library plate was conducted in duplicate, and Z-scores calculated for each compound. For subsequent validation experiments, cell numbers in each well were quantified by hoescht staining at 1 μg/ml for 15 mins at 37C in black, clear bottom plates, prior to imaging at 4× using automated microscopy (ImageXpressMicro). Nuclei were then counted using a custom algorithm, and luciferase assay run as above. Luminescence results were then normalised against cell counts as RLU/cell.
(§4) Each compound was tested in triplicate in log doses ranging 0.01 μM−10 μM. The values are represented in luminescence normalized to the number of cells in the well, wherein darker grey correlates to higher RLU per cell and higher STMN2 protein expression.

[2] = test system: STMN2 (WT STMN2-NLuc SH-SY5Y cells); experiment: STMN2 nanoluciferase assay in WT SH-SY5Y cells (Table A: WT TDP-32; Table B: WT HD Luciferase); format: cell-based, human; conditions: Homo sapiens, SH-SY5Y, WT cell line; for maximal fold induction: Emax
Protocol: as §1, §2, §3, §4

[3] = Table B, read-out: EC50, mut HD Luciferase
[4] = Table B, read-out: EC50, WT HD Luciferase
[5] = Table A, read-out: EC50, mut TDP-43
[6] = Table A, read-out: EC50, WT TDP-32

Row | Compound | EC50 [1, 3] [µM] | EC50 [2, 4] [µM] | EC50 [1, 5] [µM] | EC50 [2, 6] [µM] | maximal fold induction ([2]; Table B) | HD Luciferase (mut, Emax) ([1]; Table B)
1 | Cc1csc2c(-c3ccc(F)cc3Cl)c(/C=C/[C@@H](O)C[C@@H](O)CC(=O)O)c(C3CC3)nc12 [Example I-15, (3R,5S,E)-7-(7-(2-chloro-4-fluorophenyl)-5-cyclopropyl-3-methylthieno[3,2-b]pyridin-6-yl)-3,5-dihydroxyhept-6-enoic acid] | 0.01 to 0.05 | 0.01 to 0.05 | – | – | – | –
2 | Cc1csc2c(-c3ccc(F)cc3)c(/C=C/[C@@H](O)C[C@@H](O)CC(=O)O)c(C3CC3)nc12 [Example I-1, (3R,5S,E)-7-(5-cyclopropyl-7-(4-fluorophenyl)-3-methylthieno[3,2-b]pyridin-6-yl)-3,5-dihydroxyhept-6-enoic acid] | ≤ 0.01 | 0.01 to 0.05 | ≤ 0.1 | ≤ 0.1 | 1.5 to 1.75 | –
3 | O=C(O)C[C@H](O)C[C@H](O)/C=C/c1c(C2CC2)nc2ccsc2c1-c1ccc(F)cc1 [Example I-4, (3R,5S,E)-7-(5-cyclopropyl-7-(4-fluorophenyl)thieno[3,2-b]pyridin-6-yl)-3,5-dihydroxyhept-6-enoic acid] | 0.01 to 0.05 | 0.01 to 0.05 | 0.1 to 0.5 | 0.1 to 0.5 | – | –
4 | O=C(O)C[C@H](O)C[C@H](O)/C=C/c1c(C2CC2)cc2scnc2c1-c1ccc(F)cc1 [Example I-9, (3R,5S,E)-7-(6-cyclopropyl-4-(4-fluorophenyl)benzo[d]thiazol-5-yl)-3,5-dihydroxyhept-6-enoic acid] | ≥ 0.5 | ≥ 0.5 | 5 to 10 | ≥ 10 | 1 to 1.25 | * (means≥1 and <1.25)
5 | Cc1cc2nc(C3CC3)c(/C=C/[C@@H](O)C[C@@H](O)CC(=O)O)c(-c3ccc(F)cc3)c2s1 [Example I-6, (3R,5S,E)-7-(5-cyclopropyl-7-(4-fluorophenyl)-2-methylthieno[3,2-b]pyridin-6-yl)-3,5-dihydroxyhept-6-enoic acid] | 0.01 to 0.05 | 0.01 to 0.05 | – | – | 1.25 to 1.5 | –
6 | Cc1csc2nc(C3CC3)c(/C=C/[C@@H](O)C[C@@H](O)CC(=O)O)c(-c3ccc(Cl)cc3)c12 [Example I-34, (3R,5S,E)-7-(4-(4-chlorophenyl)-6-cyclopropyl-3-methylthieno[2,3-b]pyridin-5-yl)-3,5-dihydroxyhept-6-enoic acid] | 0.05 to 0.1 | 0.1 to 0.5 | – | – | 1.5 to 1.75 | –
7 | Cc1csc2nc(C3CC3)c(/C=C/[C@@H](O)C[C@@H](O)CC(=O)O)c(-c3ccc(F)cc3)c12 [Example I-10, (3R,5S,E)-7-(6-cyclopropyl-4-(4-fluorophenyl)-3-methylthieno[2,3-b]pyridin-5-yl)-3,5-dihydroxyhept-6-enoic acid] | 0.01 to 0.05 | 0.01 to 0.05 | – | – | – | –
8 | CC[C@H](C)C(=O)O[C@H]1C[C@H](O)C=C2C=C[C@H](C)[C@H](CC[C@@H](O)C[C@@H](O)CC(=O)O)[C@H]21 [Pravastatin] | – | – | ≥ 10 | ≥ 10 | – | –

Now from value to compound, other results behind:

Row | EC50 [1, 3] [µM] | EC50 [2, 4] [µM] | EC50 [1, 5] [µM] | EC50 [2, 6] [µM] | Compound | maximal fold induction ([2]; Table B) | HD Luciferase (mut, Emax) ([1]; Table B)
9 | 0.05 to 0.1 | 0.01 to 0.05 | – | – | O=C(O)C[C@H](O)C[C@H](O)/C=C/c1c(-c2ccc(F)cc2Cl)cc(C2CCC2)nc1C1CC1 [II-7, (3R,5S,E)-7-(4-(2-chloro-4-fluorophenyl)-6-cyclobutyl-2-cyclopropylpyridin-3-yl)-3,5-dihydroxyhept-6-enoic acid] | – | –
10 | ≤ 0.01 | ≤ 0.01 | – | – | COCc1c(C2CC2)nc(C2CC2)c(/C=C/[C@@H](O)C[C@@H](O)CC(=O)O)c1-c1ccc(F)cc1C [II-10, (3R,5S,E)-7-(2,6-dicyclopropyl-4-(4-fluoro-2-methylphenyl)-5-(methoxymethyl)pyridin-3-yl)-3,5-dihydroxyhept-6-enoic acid] | – | –
11 | ≥ 0.5 | ≥ 0.5 | – | – | O=C(O)C[C@H](O)C[C@H](O)/C=C/c1c(-c2ccc(F)cc2Cl)cc(C2CC2)nc1C1CCC1 [II-27, (3R,5S,E)-7-(4-(2-chloro-4-fluorophenyl)-2-cyclobutyl-6-cyclopropylpyridin-3-yl)-3,5-dihydroxyhept-6-enoic acid] | 1 to 1.25 | * (means≥1 and <1.25)
12 | ≤ 0.01 | ≤ 0.01 | ≤ 0.1 | ≤ 0.1 | COCc1c(C2CCC2)nc(C2CC2)c(/C=C/[C@@H](O)C[C@@H](O)CC(=O)O)c1-c1ccc(F)cc1 [II-5, (3R,5S,E)-7-(6-cyclobutyl-2-cyclopropyl-4-(4-fluorophenyl)-5-(methoxymethyl)pyridin-3-yl)-3,5-dihydroxy hept-6-enoic acid] | – | –
13 | 0.1 to 0.5 | 0.05 to 0.1 | – | – | O=C(O)C[C@H](O)C[C@H](O)/C=C/c1c(-c2ccc(F)cc2)cc(C23CC(C2)C3)nc1C1CC1 [II-16, (3R,5S,E)-7-(6-(bicyclo[1.1.1]pentan-1-yl)-2-cyclopropyl-4-(4-fluorophenyl)pyridin-3-yl)-3,5-dihydroxyhept-6-enoic acid] | – | ** (means≥1.25 and <1.5)
14 | 0.01 to 0.05 | 0.01 to 0.05 | – | – | COCc1c(C2CC2)nc(C2CC2)c(/C=C/[C@@H](O)C[C@@H](O)CC(=O)O)c1-c1ccc(Cl)cc1F [II-19, (3R,5S,E)-7-(4-(4-chloro-2-fluorophenyl)-2,6-dicyclopropyl-5-(methoxymethyl)pyridin-3-yl)-3,5-dihydroxyhept-6-enoic acid] | – | –
15 | ≤ 0.01 | ≤ 0.01 | ≤ 0.1 | ≤ 0.1 | COCc1c(C2CCC2)nc(C2CC2)c(/C=C/[C@@H](O)C[C@@H](O)CC(=O)O)c1-c1ccc(F)cc1Cl [II-4, (3R,5S,E)-7-(4-(2-chloro-4-fluorophenyl)-6-cyclobutyl-2-cyclopropyl-5-(methoxymethyl)pyridin-3-yl)-3,5-dihydroxyhept-6-enoic acid] | – | –
16 | 0.01 to 0.05 | 0.01 to 0.05 | – | – | COCc1c(C2CC2)nc(C2CC2)c(/C=C/[C@@H](O)C[C@@H](O)CC(=O)O)c1-c1ccccc1Cl [II-25, (3R,5S,E)-7-(4-(2-chlorophenyl)-2,6-dicyclopropyl-5-(methoxymethyl)pyridin-3-yl)-3,5-dihydroxyhept-6-enoic acid] | – | –
17 | ≤ 0.01 | ≤ 0.01 | ≤ 0.1 | 0.1 to 0.5 | COCc1c(C23CC(C2)C3)nc(C2CC2)c(/C=C/[C@@H](O)C[C@@H](O)CC(=O)O)c1-c1ccc(F)cc1 [II-2, (3R,5S,E)-7-(6-(bicyclo[1.1.1]pentan-1-yl)-2-cyclopropyl-4-(4-fluorophenyl)-5-(methoxymethyl)pyridin-3-yl)-3,5-dihydroxyhept-6-enoic acid] | – | –
18 | 0.01 to 0.05 | 0.01 to 0.05 | – | – | COCc1c(C2CC2)nc(C2CC2)c(/C=C/[C@@H](O)C[C@@H](O)CC(=O)O)c1-c1c(F)cccc1Cl [II-22, (3R,5S,E)-7-(4-(2-chloro-6-fluorophenyl)-2,6-dicyclopropyl-5-(methoxymethyl)pyridin-3-yl)-3,5-dihydroxyhept-6-enoic acid] | – | –
19 | 0.1 to 0.5 | 0.1 to 0.5 | – | – | Cc1cc(F)ccc1-c1cc(C23CC(C2)C3)nc(C2CC2)c1/C=C/[C@@H](O)C[C@@H](O)CC(=O)O [II-14, (3R,5S,E)-7-(6-(bicyclo[1.1.1]pentan-1-yl)-2-cyclopropyl-4-(4-fluoro-2-methylphenyl)pyridin-3-yl)-3,5-dihydroxyhept-6-enoic acid] | – | –
20 | 0.1 to 0.5 | 0.1 to 0.5 | 0.5 to 1 | 0.5 to 1 | COCc1c(C2CCC2)nc(C2CCC2)c(/C=C/[C@@H](O)C[C@@H](O)CC(=O)O)c1-c1ccc(F)cc1Cl [II-3, (3R,5S,E)-7-(4-(2-chloro-4-fluorophenyl)-2,6-dicyclobutyl-5-(methoxymethyl)pyridin-3-yl)-3,5-dihydroxyhept-6-enoic acid] | 1.25 to 1.5 | ** (means≥1.25 and <1.5)
